Test results: PubChem BioAssay AID330 (DTP/NCI, 2004)
“And” between values parts separate entries of the source, which are not always exact repeats. Equal entries are not always repeated. Inconclusive results and toxic doses are left out. How the source made its calls: active means survival T/C of 150% or more; inactive means T/C below 125% in these data.

Test system: P388 leukemia ip, CD2F1 mice, survival T/C
Experiment: NCI In Vivo Anticancer Drug Screen. Data for tumor model P388 Leukemia (intraperitoneal) in CD2F1 (CDF1) mice
Settings: endpoint: median survival time, higher = longer survival
How it was run: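 Mice carrying the transplanted tumor received test compound or vehicle. Survival was recorded in each group, and the value is the treated-group measurement divided by that of the vehicle-treated control group.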

[1] = dose: 50.0 mg/kg/injection, schedule: Q01DX005 (ip), vehicle: Klucel (hydroxypropylcellulose) (HPC)
[2] = dose: 100.0 mg/kg/injection, schedule: Q01DX005 (ip), vehicle: Klucel (hydroxypropylcellulose) (HPC)
[3] = dose: 200.0 mg/kg/injection, schedule: Q01DX005 (ip), vehicle: Klucel (hydroxypropylcellulose) (HPC)
[4] = dose: 50.0 mg/kg/injection, schedule: Q01DX005 (ip), vehicle: saline with Tween-80
[5] = dose: 100.0 mg/kg/injection, schedule: Q01DX005 (ip), vehicle: saline with Tween-80
[6] = dose: 200.0 mg/kg/injection, schedule: Q01DX005 (ip), vehicle: saline with Tween-80
[7] = dose: 100.0 mg/kg/injection, schedule: Q01DX009 (ip), vehicle: saline with Tween-80
[8] = dose: 50.0 mg/kg/injection, schedule: Q01DX005 (ip), vehicle: saline
[9] = dose: 100.0 mg/kg/injection, schedule: Q01DX005 (ip), vehicle: saline
[10] = dose: 200.0 mg/kg/injection, schedule: Q01DX005 (ip), vehicle: saline
[11] = dose: 60.0 mg/kg/injection, schedule: Q01DX005 (ip), vehicle: saline with Tween-80

Measured: T/C

CC1(C)CC(=O)C(C(=O)c2ccccc2)=[N+]1[O-]
inactive: [1] 97 % of control | [2] 100 % of control | [3] 99 % of control

c1ccc(C2c3ccccc3Nc3ccccc32)cc1
inactive: dose: 6.25 mg/kg/injection, schedule: Q04DX002 (ip), vehicle: saline with Tween-80 104 % of control | dose: 12.5 mg/kg/injection, schedule: Q04DX002 (ip), vehicle: saline with Tween-80 97 % of control | dose: 25.0 mg/kg/injection, schedule: Q04DX002 (ip), vehicle: saline with Tween-80 97 % of control

O=C(Cl)CCc1cc(Cl)no1
inactive: dose: 3.13 mg/kg/injection, schedule: Q04DX003 (ip), vehicle: other 109 % of control | dose: 6.25 mg/kg/injection, schedule: Q04DX003 (ip), vehicle: other 97 % of control | dose: 12.5 mg/kg/injection, schedule: Q04DX003 (ip), vehicle: other 100 % of control | dose: 25.0 mg/kg/injection, schedule: Q04DX003 (ip), vehicle: other 103 % of control | dose: 50.0 mg/kg/injection, schedule: Q04DX003 (ip), vehicle: other 107 % of control | dose: 100.0 mg/kg/injection, schedule: Q04DX003 (ip), vehicle: other 107 % of control | dose: 200.0 mg/kg/injection, schedule: Q04DX003 (ip), vehicle: other 100 % of control

COC(=O)C1=[N+]([O-])OC(C(=O)OC)C1c1ccc(OC)cc1 (stereo unspecified)
inactive: [4] 97 % of control | [5] 97 % of control | [6] 98 % of control

CC(=O)N1c2ccccc2C23CCN(C)CC4C(C)OCC(C4CC2=O)C13 (stereo unspecified)
inactive: dose: 2.0 mg/kg/injection, schedule: Q01DX009 (ip), vehicle: Klucel (hydroxypropylcellulose) (HPC) 100 % of control | dose: 4.0 mg/kg/injection, schedule: Q01DX009 (ip), vehicle: Klucel (hydroxypropylcellulose) (HPC) 95 % of control | dose: 8.0 mg/kg/injection, schedule: Q01DX009 (ip), vehicle: Klucel (hydroxypropylcellulose) (HPC) 98 % of control | dose: 16.0 mg/kg/injection, schedule: Q01DX009 (ip), vehicle: Klucel (hydroxypropylcellulose) (HPC) 100 % of control | dose: 32.0 mg/kg/injection, schedule: Q01DX009 (ip), vehicle: Klucel (hydroxypropylcellulose) (HPC) 100 % of control

CCCC(C)(C)c1cc(C(C)C)cc(C(C)(C)CCC)c1O
inactive: dose: 12.5 mg/kg/injection, schedule: Q01DX009 (ip), vehicle: other 100 % of control | dose: 25.0 mg/kg/injection, schedule: Q01DX009 (ip), vehicle: other 100 % of control | dose: 25.0 mg/kg/injection, schedule: Q01DX009 (ip), vehicle: saline + Tween-80 + alcohol 103 % of control | dose: 50.0 mg/kg/injection, schedule: Q01DX009 (ip), vehicle: other 106 % of control | dose: 50.0 mg/kg/injection, schedule: Q01DX009 (ip), vehicle: saline + Tween-80 + alcohol 101 % of control | dose: 100.0 mg/kg/injection, schedule: Q01DX009 (ip), vehicle: other 112 % of control | dose: 100.0 mg/kg/injection, schedule: Q01DX009 (ip), vehicle: saline + Tween-80 + alcohol 100 % of control | dose: 200.0 mg/kg/injection, schedule: Q01DX009 (ip), vehicle: saline + Tween-80 + alcohol 113 % of control

O=C(NN(Cn1c(=S)sc2ccccc21)Cn1c(=S)sc2ccccc21)c1ccccc1O
inactive: [1] 89 % of control | [2] 91 % of control | [3] 98 % of control

O=C(NC(=O)C(F)(F)F)Nc1cc(F)ccc1F
inactive: dose: 50.0 mg/kg/injection, schedule: Q01DX009 (ip), vehicle: saline with Tween-80 99 % of control | [7] 105 % of control | dose: 200.0 mg/kg/injection, schedule: Q01DX009 (ip), vehicle: saline with Tween-80 107 % of control

CCN(CC)CCNc1c(C)ccc2cccnc12
inactive: dose: 12.5 mg/kg/injection, schedule: Q01DX005 (ip), vehicle: saline 102 % of control | dose: 25.0 mg/kg/injection, schedule: Q01DX005 (ip), vehicle: saline 93 % of control | [8] 100 % of control

C/C(=N\N=C(/[Se])N1CCC1)c1ccccn1
inactive: dose: 12.5 mg/kg/injection, schedule: Q04DX003 (ip), vehicle: Klucel (hydroxypropylcellulose) (HPC) 106 % of control | dose: 25.0 mg/kg/injection, schedule: Q04DX003 (ip), vehicle: Klucel (hydroxypropylcellulose) (HPC) 104 % of control

C=C(C)Cn1ccn(C)c1=S
inactive: dose: 100.0 mg/kg/injection, schedule: Q04DX003 (ip), vehicle: saline with Tween-80 96 % of control | dose: 200.0 mg/kg/injection, schedule: Q04DX003 (ip), vehicle: saline with Tween-80 98 % of control | dose: 400.0 mg/kg/injection, schedule: Q04DX003 (ip), vehicle: saline with Tween-80 102 % of control

CCCCC1C=CC2C(N1)N2C#N (stereo unspecified)
inactive: dose: 6.25 mg/kg/injection, schedule: Q01DX009 (ip), vehicle: saline 102 % of control | dose: 12.5 mg/kg/injection, schedule: Q01DX009 (ip), vehicle: saline 99 % of control | dose: 25.0 mg/kg/injection, schedule: Q01DX009 (ip), vehicle: saline 102 % of control | [7] 86 % of control

CC(C)(C#N)NCCCNC(C)(C)C#N
inactive: [8] 100 % of control | [9] 97 % of control | [10] 95 % of control

O=C(Nc1nc2ccccc2s1)Nc1ccc([N+](=O)[O-])cc1Cl
inactive: [1] 98 % of control | [2] 94 % of control | [3] 90 % of control

NC(=O)C1CCC(c2ccccc2)(c2ccccc2)C1=O (stereo unspecified)
inactive: dose: 100.0 mg/kg/injection, schedule: Q04DX002 (ip), vehicle: saline with Tween-80 99 % of control | dose: 200.0 mg/kg/injection, schedule: Q04DX002 (ip), vehicle: saline with Tween-80 105 % of control | dose: 400.0 mg/kg/injection, schedule: Q04DX002 (ip), vehicle: saline with Tween-80 101 % of control

O=C(Nc1nnc(-c2ccccc2)s1)c1cc(=O)c2cc([N+](=O)[O-])ccc2o1
inactive: [4] 100 % of control | [5] 102 % of control | [6] 96 % of control

O=c1c2c(oc3ccccc13)Oc1oc3ccccc3c(=O)c1C2c1ccc2c(c1)OCO2
inactive: dose: 15.0 mg/kg/injection, schedule: Q01DX005 (ip), vehicle: saline with Tween-80 96 % of control | dose: 30.0 mg/kg/injection, schedule: Q01DX005 (ip), vehicle: saline with Tween-80 92 % of control and 96 % of control | [11] 91 % of control

CCc1nc(N)nc(N)c1-c1ccc(NCCN)c([N+](=O)[O-])c1
inactive: [11] 113 % of control | dose: 120.0 mg/kg/injection, schedule: Q01DX005 (ip), vehicle: saline with Tween-80 116 % of control | dose: 240.0 mg/kg/injection, schedule: Q01DX005 (ip), vehicle: saline with Tween-80 116 % of control

O=C(OCc1ccccc1)ON1C(=O)C2C3C=CC(C3)C2C1=O (stereo unspecified)
inactive: [1] 115 % of control | [2] 110 % of control

c1cncc(-c2cc(-c3cc(-c4cccnc4)n[nH]3)[nH]n2)c1
inactive: dose: 60.0 mg/kg/injection, schedule: Q01DX005 (ip), vehicle: Klucel (hydroxypropylcellulose) (HPC) 103 % of control | dose: 120.0 mg/kg/injection, schedule: Q01DX005 (ip), vehicle: Klucel (hydroxypropylcellulose) (HPC) 103 % of control | dose: 240.0 mg/kg/injection, schedule: Q01DX005 (ip), vehicle: Klucel (hydroxypropylcellulose) (HPC) 91 % of control

CCCCC(CC)C(=O)OC(C)C(N)=O (stereo unspecified)
inactive: [8] 105 % of control | [9] 101 % of control | [10] 101 % of control

CC(=O)CC(c1ccccc1)C(C(=O)O)c1ccccc1 (stereo unspecified)
inactive: dose: 100.0 mg/kg/injection, schedule: Q04DX003 (ip), vehicle: saline 93 % of control | dose: 200.0 mg/kg/injection, schedule: Q04DX003 (ip), vehicle: saline 100 % of control | dose: 400.0 mg/kg/injection, schedule: Q04DX003 (ip), vehicle: saline 100 % of control
